Test results published in ChEMBL document CHEMBL1201862, “PubChem BioAssay data set” (2004).
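Where inhibition never reached the appropriate level, the endpoint shown equals the highest concentration tested. Otherwise, values were interpolated linearly from a five-concentration, 48-hour dose response in 96-well plates. Here, GI50 denotes the concentration required for 50% inhibition of growth.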 Calls of active or inactive are those of the source. Cut-off read from the data, not from the text of the source: active = GI50 up to about 1.1 µM and inactive = higher.

Assays:
Assay in all cases: growth of human tumour cells (NCI), 48 h
[1] = system: ACHN
[2] = system: COLO 205
[3] = system: HCT-116
[4] = system: IGROV-1
[5] = system: M14
[6] = system: MOLT-4
[7] = system: NCI-H460
[8] = system: NCI-H522
[9] = system: SF-539
[10] = system: SK-MEL-2
[11] = system: SNB-75
[12] = system: SW-620
[13] = system: U-251
[14] = system: HOP-92
[15] = system: LOX IMVI
[16] = system: OVCAR-5

Measured: GI50

CC(C)O/C=C1\C(=O)C2(SCCS2)[C@H]2CCCC[C@@H]12
inactive: [1] 39.3 µM | [2] 18.5 µM | [3] 34.4 µM | [4] 49.7 µM | [5] 42.6 µM | [6] 16.2 µM | [7] 33.7 µM | [8] 20.5 µM | [9] 44.3 µM | [10] 34.8 µM | [11] 28.8 µM | [12] 42.7 µM | [13] 40.5 µM

CN(C(=O)c1ccco1)C(=S)N1CCN(c2ccccc2)CC1
inactive: [1] > 100 µM | [2] > 100 µM | [3] > 100 µM | [14] > 100 µM | [4] > 100 µM | [15] > 100 µM | [5] > 100 µM | [6] > 100 µM | [7] > 100 µM | [8] > 100 µM | [16] > 100 µM | [9] > 100 µM | [10] > 100 µM | [11] > 100 µM | [12] > 100 µM | [13] > 100 µM

CC1=NN(C(=O)Nc2ccccc2)C(=O)C2CCC(=O)N12 (configuration not stated)
inactive: [1] > 100 µM | [2] > 100 µM | [3] > 100 µM | [14] > 100 µM | [4] > 100 µM | [15] > 100 µM | [5] > 100 µM | [6] > 100 µM | [7] > 100 µM | [9] > 100 µM | [10] > 100 µM | [11] 84.3 µM | [12] > 100 µM | [13] > 100 µM

OC12CCC3(OC4CCCCO4)c4ccccc4C3C1c1ccccc12 (configuration not stated)
inactive: [1] 41.7 µM | [2] 55.1 µM | [3] 35 µM | [15] 38.8 µM | [5] 67.6 µM | [6] 35.4 µM | [7] 35.2 µM | [8] 37.6 µM | [10] > 100 µM | [11] > 100 µM | [12] 55.6 µM | [13] 53.8 µM

c1ccc(SC(Sc2ccccc2)=C2CCC2)cc1
inactive: [1] > 100 µM | [2] > 100 µM | [3] > 100 µM | [14] 55.3 µM | [15] > 100 µM | [5] > 100 µM | [6] > 100 µM | [7] > 100 µM | [8] > 100 µM | [9] > 100 µM | [10] > 100 µM | [11] 98.4 µM | [12] > 100 µM | [13] > 100 µM

Cc1nc2sccn2c1C(=O)NN
inactive: [1] > 100 µM | [2] > 100 µM | [3] > 100 µM | [14] > 100 µM | [4] > 100 µM | [15] > 100 µM | [6] > 100 µM | [7] > 100 µM | [8] > 100 µM | [16] > 100 µM | [9] > 100 µM | [10] > 100 µM | [12] > 100 µM | [13] > 100 µM

COC(=O)C(=O)C(C(=O)C(=O)Nc1ccccc1[N+](=O)[O-])c1nc2ccc([N+](=O)[O-])cc2nc1O (configuration not stated)
inactive: [1] > 100 µM | [2] > 100 µM | [3] > 100 µM | [14] > 100 µM | [4] > 100 µM | [15] > 100 µM | [5] > 100 µM | [6] > 100 µM | [7] > 100 µM | [8] > 100 µM | [16] > 100 µM | [10] > 100 µM | [11] > 100 µM | [12] > 100 µM | [13] > 100 µM

C/C(=N/O)c1ccc2c(c1)/C(=N/O)c1cc(/C(C)=N/O)ccc1-2
inactive: [1] 8.53 µM | [2] 17.8 µM | [3] 20.1 µM | [14] 26.1 µM | [4] 21.1 µM | [15] 13 µM | [5] 16.4 µM | [6] 2.49 µM | [7] 17.7 µM | [8] 18.9 µM | [16] 17.4 µM | [9] 15.5 µM | [10] 23.9 µM | [11] 17.9 µM | [12] 14.5 µM | [13] 15.3 µM

COc1ccc(NC(=O)CC/C(CC(=O)c2ccccc2Cl)=N\Nc2nnc(C)n2N)cc1
inactive: [1] > 100 µM | [2] > 100 µM | [3] > 100 µM | [14] > 100 µM | [4] > 100 µM | [15] > 100 µM | [6] > 100 µM | [7] > 100 µM | [16] > 100 µM | [9] > 100 µM | [10] > 100 µM | [12] > 100 µM | [13] > 100 µM

COc1ccc(C(=O)C(c2ccc(OC)cc2)C2(O)C(=O)Nc3c(C)cc(Cl)cc32)cc1 (configuration not stated)
inactive: [1] > 100 µM | [2] > 100 µM | [3] 70.3 µM | [14] 21.9 µM | [4] 72.8 µM | [5] 92 µM | [6] 14.1 µM | [7] > 100 µM | [8] 28 µM | [16] > 100 µM | [9] 69.8 µM | [10] > 100 µM | [11] 33.2 µM | [12] > 100 µM | [13] 45.2 µM
